Measured values: US8946439B2, “Amide compounds, compositions and uses thereof” (Evotec AG, priority 2008, dated 2015)

Experiments:
[1] = target: T1, hP2X2/3H (Homo sapiens, UniProt P56373+Q9UBL9); experiment: Calcium uptake assay (P2X antagonist assay), P2X2/3 heteromer; assay type: cell-based; settings: Ca influx (calcium uptake assay), hP2X2/3H; read-out: IC50 hP2X2/3H
T1 construct: expressed in transfected cells; host or cells: e.g. HEK293 or 1321N1
T1 sequence (Q9UBL9 1-471): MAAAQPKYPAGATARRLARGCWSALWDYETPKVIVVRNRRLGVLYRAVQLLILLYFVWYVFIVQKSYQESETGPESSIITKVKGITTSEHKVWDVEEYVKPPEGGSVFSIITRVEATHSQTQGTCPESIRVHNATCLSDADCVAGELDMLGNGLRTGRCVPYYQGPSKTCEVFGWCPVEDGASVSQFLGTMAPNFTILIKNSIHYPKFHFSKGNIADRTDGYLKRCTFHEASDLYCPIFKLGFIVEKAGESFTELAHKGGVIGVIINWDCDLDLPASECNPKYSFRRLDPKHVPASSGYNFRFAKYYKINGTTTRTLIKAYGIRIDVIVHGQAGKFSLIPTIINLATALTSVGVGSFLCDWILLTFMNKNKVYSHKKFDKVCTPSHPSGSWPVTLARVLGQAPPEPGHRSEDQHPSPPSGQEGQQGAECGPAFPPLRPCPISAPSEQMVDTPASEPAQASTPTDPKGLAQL
T1 sequence (P56373 1-397): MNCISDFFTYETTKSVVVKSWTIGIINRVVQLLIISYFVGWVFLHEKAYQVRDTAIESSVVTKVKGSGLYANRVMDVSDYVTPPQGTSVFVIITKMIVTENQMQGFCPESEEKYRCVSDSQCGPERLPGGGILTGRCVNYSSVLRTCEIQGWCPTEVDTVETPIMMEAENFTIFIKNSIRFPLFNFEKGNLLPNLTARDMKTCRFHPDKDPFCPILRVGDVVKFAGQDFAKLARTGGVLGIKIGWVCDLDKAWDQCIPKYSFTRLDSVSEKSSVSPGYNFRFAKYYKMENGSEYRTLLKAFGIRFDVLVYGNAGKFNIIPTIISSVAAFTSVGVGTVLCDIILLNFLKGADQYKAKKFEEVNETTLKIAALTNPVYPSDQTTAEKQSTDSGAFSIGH
Outline: (§1)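 Stably or transiently transfected HEK293 or 1321N1 cells; the heteromer is made by adding P2X3 to a P2X2-stable line, with heteromer function isolated pharmacologically. The peak-minus-baseline FLIPR calcium signal gives % inhibition and a 4-parameter-logistic IC50.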

[2] = target: T2, hP2X3 (Homo sapiens, UniProt P56373); experiment: Calcium uptake assay (P2X antagonist assay), P2X3 homomer; assay type: cell-based; settings: Ca influx (calcium uptake assay), hP2X3; read-out: IC50 hP2X3
T2 construct: expressed in transfected cells; host or cells: e.g. HEK293 or 1321N1
T2 sequence (P56373 1-397): T1 sequence (P56373 1-397)
Outline: as §1

IC50 [1]	IC50 [2]	Compound
< 100 nM	< 100 nM	Cc1ccc(-c2cc(C(=O)N[C@H](C)c3ccc(C)nc3)cc(C(O)c3cncn3C)c2)cc1 (stereo partly shown) [Compound 330]
< 100 nM	< 100 nM	Cc1ccc(-c2cc(C(=O)N[C@H](C)c3ccc(C)nc3)cc(C(C)O)c2)nc1 (stereo partly shown) [Compound 331]
100 to 500 nM	< 100 nM	Cc1ccc(-c2cc(OCC3COCCO3)cc(C(=O)N[C@H](C)c3ccc(C)nc3)c2)nc1 (stereo partly shown) [Compound 332]
< 100 nM	< 100 nM	Cc1ccc(-c2cc(OC3CCOC3)cc(C(=O)N[C@H](C)c3ccc(C)nc3)c2)nc1 (stereo partly shown) [Compound 333]
< 100 nM	< 100 nM	Cc1ccc(-c2cc(OCC3CCOC3)cc(C(=O)N[C@H](C)c3ccc(C)nc3)c2)nc1 (stereo partly shown) [Compound 334]
< 100 nM	< 100 nM	Cc1ccc(-c2cc(OCC3CCCO3)cc(C(=O)N[C@H](C)c3ccc(C)nc3)c2)nc1 (stereo partly shown) [Compound 335]
< 100 nM	< 100 nM	Cc1ccc(-c2cc(OC3COCC3O)cc(C(=O)N[C@H](C)c3ccc(C)nc3)c2)cc1 (stereo partly drawn) [Compound 336, 5-(4-Hydroxytetrahydrofuran-3-yloxy)-4′-methyl-N—((R)-1-(6-methylpyridin-3-yl)ethyl)biphenyl-3-carboxamide]
< 100 nM	< 100 nM	Cc1ccc(-c2cc(OC3COCC3O)cc(C(=O)N[C@H](C)c3ccc(C)nc3)c2)c(C#N)c1 (stereo partly shown) [Compound 337]
100 to 500 nM	< 100 nM	Cc1ccc(-c2cc(OC3CNCC3O)cc(C(=O)N[C@H](C)c3ccc(C)nc3)c2)c(C#N)c1 (stereo partly drawn) [Compound 338, 2′-Cyano-5-(4-hydroxypyrrolidin-3-yloxy)-4′-methyl-N—((R)-1-(6-methylpyridin-3-yl)ethyl)biphenyl-3-carboxamide]
100 to 500 nM	< 100 nM	Cc1ccc(-c2cc(OC3CNCC3O)cc(C(=O)N[C@H](C)c3ccc(C)nc3)c2)nc1 (stereo partly shown) [Compound 339]
100 to 500 nM	< 100 nM	Cc1ccc(-c2cc(CN(C)C)cc(C(=O)N[C@H](C)c3ccc(C)nc3)c2)cc1 [Compound 340, (R)-5-((Dimethylamino)methyl)-4′-methyl-N-(1-(6-methylpyridin-3-yl)ethyl)biphenyl-3-carboxamide]
< 100 nM	100 to 500 nM	Cc1ccc(-c2cc(Oc3nc(Cl)cs3)cc(C(=O)N[C@H](C)c3ccc(C)nc3)c2)cc1 [Compound 341]
100 to 500 nM	< 100 nM	CCN(CC)CC(O)c1cc(C(=O)N[C@H](C)c2ccc(C)nc2)cc(-c2ccc(C)cn2)c1 (stereo partly drawn) [Compound 342, 3-(2-(Diethylamino)-1-hydroxyethyl)-5-(5-methylpyridin-2-yl)-N—((R)-1-(6-methylpyridin-3-yl)ethyl)benzamide]
100 to 500 nM	< 100 nM	CCN(CC)CC(O)c1cc(C(=O)N[C@H](C)c2ccc(C)nc2)cc(-c2ccc(C)cc2C#N)c1 (stereo partly shown) [Compound 343]
100 to 500 nM	< 100 nM	Cc1ccc(-c2cc(OCC(O)CO)cc(C(=O)N[C@H](C)c3ccc(C)nc3)c2)nc1 (stereo partly shown) [Compound 344]
< 100 nM	< 100 nM	Cc1ccc(-c2cc(OC(C)CO)cc(C(=O)N[C@H](C)c3ccc(C)nc3)c2)nc1 (stereo partly shown) [Compound 345]
< 100 nM	< 100 nM	Cc1ccc(-c2cc(OC(C)CO)cc(C(=O)N[C@H](C)c3ccc(C)nc3)c2)cc1 (stereo partly shown) [Compound 346]
100 to 500 nM	< 100 nM	Cc1ccc(-c2cc(OC3COCC3O)cc(C(=O)N[C@H](C)c3ccc(C)nc3)c2)nc1 (stereo partly shown) [Compound 347]
< 100 nM	< 100 nM	COCC(CO)Oc1cc(C(=O)N[C@H](C)c2ccc(C)nc2)cc(-c2ccc(C)cn2)c1 (stereo partly shown) [Compound 348]
100 to 500 nM	< 100 nM	Cc1ccc(-c2cc(OCC3CNCCO3)cc(C(=O)N[C@H](C)c3ccc(C)nc3)c2)nc1 (stereo partly shown) [Compound 349]
100 to 500 nM	< 100 nM	Cc1ccc(-c2cc(C(=O)NCc3ncc(C(F)(F)F)cc3Cl)cc(S(C)(=O)=O)c2)nc1 [Compound 350]

IC50 [1]	IC50 [2]	Compound
100 to 500 nM	< 100 nM	Cc1ccc(-c2cc(C(=O)NCc3ccn4ccnc4c3)cc(S(C)(=O)=O)c2)nc1 [Compound 351]
100 to 500 nM	< 100 nM	Cc1ccc(-c2cc(C(=O)NCc3ccc4c(c3)S(=O)(=O)CC4)cc(S(C)(=O)=O)c2)nc1 [Compound 352]
< 100 nM	< 100 nM	Cc1ccc(-c2cc(C(=O)N[C@H](C)c3cnc(C)nc3)cc(C(O)C(F)(F)F)c2)c(C#N)c1 (stereo partly shown) [Compound 353]
< 100 nM	< 100 nM	Cc1ccc(-c2cc(C(=O)N[C@H](C)c3cnc(C)nc3)cc(C(O)c3cncn3C)c2)cc1 (stereo partly shown) [Compound 354]
> 1000 nM	< 100 nM	Cc1ccc(-c2cc(OC3CNCC3O)cc(C(=O)N[C@H](C)c3cnc(C)nc3)c2)nc1 (stereo partly shown) [Compound 355]
100 to 500 nM	< 100 nM	Cc1ccc(-c2cc(C(=O)N[C@H](C)c3cnc(C)nc3)cc(C(O)CO)c2)nc1 (stereo partly shown) [Compound 356]
100 to 500 nM	< 100 nM	Cc1ccc(-c2cc(OC3CCOC3)cc(C(=O)N[C@H](C)c3cnc(C)nc3)c2)nc1 (stereo partly shown) [Compound 357]
< 100 nM	< 100 nM	Cc1ccc(-c2cc(OC3CCOC3)cc(C(=O)N[C@H](C)c3cnc(C)nc3)c2)c(C#N)c1 (stereo partly shown) [Compound 358]
< 100 nM	< 100 nM	Cc1ccc(-c2cc(OC3CCOC3)cc(C(=O)N[C@H](C)c3cnc(C)nc3)c2)cc1 (stereo partly shown) [Compound 359]
100 to 500 nM	< 100 nM	Cc1ccc(-c2cc(C(=O)N[C@H](C)c3cnc(C)nc3)cc(C(O)CO)c2)c(C#N)c1 (stereo partly shown) [Compound 360]
100 to 500 nM	< 100 nM	Cc1ccc(-c2cc(C(=O)N[C@H](C)c3cnc(C)nc3)cc(C(O)CO)c2)cc1 (stereo partly shown) [Compound 361]
< 100 nM	< 100 nM	Cc1ccc(-c2cc(OC3COCC3O)cc(C(=O)N[C@H](C)c3cnc(C)nc3)c2)cc1 (stereo partly shown) [Compound 362]
< 100 nM	< 100 nM	Cc1ccc(-c2cc(OC3COCC3O)cc(C(=O)N[C@H](C)c3cnc(C)nc3)c2)c(C#N)c1 (stereo partly shown) [Compound 363]
100 to 500 nM	< 100 nM	Cc1ccc(-c2cc(OC3COCC3O)cc(C(=O)N[C@H](C)c3cnc(C)nc3)c2)nc1 (stereo partly shown) [Compound 364]
< 100 nM	< 100 nM	Cc1ccc(-c2cc(C(=O)NCc3ccc(C)nc3)cc(C(O)CN3CCOCC3)c2)cc1 (stereo not shown) [Compound 365, 5-(1-Hydroxy-2-morpholinoethyl)-4′-methyl-N-((6-methylpyridin-3-yl)methyl)biphenyl-3-carboxamide]
501 to 1000 nM	< 100 nM	Cc1ccc(-c2cc(C(=O)NCc3ccc(C)nc3)cc(C(O)CN3CCN(C)CC3)c2)cc1 (stereo not shown) [Compound 366]
> 1000 nM	< 100 nM	Cc1ccc(-c2cc(C(=O)NCc3ccc(C)nc3)cc(C(O)CN(C)C)c2)cc1 (stereo not shown) [Compound 367]
501 to 1000 nM	< 100 nM	Cc1ccc(-c2cc(C(=O)NCc3ccc(C)nc3)cc(C(O)CN(C)CCO)c2)cc1 (stereo not shown) [Compound 368]
501 to 1000 nM	< 100 nM	Cc1ncc([C@@H](C)NC(=O)c2cc(-c3ccccc3)cc(S(C)(=O)=O)c2)cn1 [Compound 370]
100 to 500 nM	< 100 nM	Cc1ccc(-c2cc(C(=O)NC(C)c3ccc(Cl)c(S(C)(=O)=O)c3)cc(S(C)(=O)=O)c2)nc1 (stereo not shown) [Compound 371]
